Measurements reported in patent US9969700B2, “P2X4 receptor antagonist” (NIPPON CHEMIPHAR CO., LTD, priority 2012, dated 2018).
Structures can show the parent of a compound that is named as a salt.

How the values were obtained:
human P2X4 receptor = human P2X4 receptor (Homo sapiens (Human), UniProt Q99571); assay: P2X4 receptor antagonist activity (ATP-induced intracellular calcium, Fura-2 AM); format: cell-based; details: 1321N1 cells stably expressing human P2X4 receptor; test substance 15 minutes before ATP; read-out: Inhibitory activity IC50
Chain of human P2X4 receptor (Q99571 whole entry): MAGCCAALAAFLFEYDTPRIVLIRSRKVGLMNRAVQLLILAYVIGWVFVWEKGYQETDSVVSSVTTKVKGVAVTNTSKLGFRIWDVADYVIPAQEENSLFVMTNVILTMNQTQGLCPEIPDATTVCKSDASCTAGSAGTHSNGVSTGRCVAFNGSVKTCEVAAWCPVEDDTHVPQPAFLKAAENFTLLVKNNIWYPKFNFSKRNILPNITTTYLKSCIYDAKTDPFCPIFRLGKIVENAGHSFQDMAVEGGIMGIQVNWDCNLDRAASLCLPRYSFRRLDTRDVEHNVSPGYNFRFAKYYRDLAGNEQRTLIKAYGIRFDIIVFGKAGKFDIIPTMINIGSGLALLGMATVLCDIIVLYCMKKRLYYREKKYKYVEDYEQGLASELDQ

[1] = tested on: Neurogenic pain model (modified Chung model); assay: Analgesic activity, von Frey filament test in neurogenic pain model (modified Chung model); format: in vivo; details: rats, oral administration of 50 mg/kg, day 9 after the modified Chung operation; significant difference compared with vehicle group
Protocol: Neurogenic pain model (modified Chung model) was prepared according to the description of Non-patent document 9. More specifically, under isoflurane anesthesia, back hair of rats was extensively shaved, the shaved parts were wiped with rubbing alcohol, the rate were fixed on an incubator in the abdominal position, and the skins were cut and opened along the dorsal median line on the upper and lower sides of the sacroiliac bone. The left lateral paravertebral muscle was separated in the sacral region, and then the ligament was separated. The sacroiliae rim and the upper part thereof were cut and opened along the pyramid, the L5 nerve was ligated, and the nerve was cut on the peripheral side. […]
The pain threshold value (paw withdrawal threshold (g)) was calculated according to the up down method by stimulating the sole with a von Frey filament (Stoelting Co., TOUCH-TEST SENSORY EVALUATOR) and determining presence or absence of withdrawal response.
As the von Frey filaments, seven filaments giving different stimulation strengths were used. The 50% threshold value was calculated according to the up down method by referring to the method of Chaplan et al. (Chaplan S R, Bach F W, Pogrel J W, Chung J M, Yaksh T L.: Quantitative assessment of tactile allodynia in the rat paw, J. Neurosci. Methods, 53:55-63 (1994). […]

Compound | IC50 (human P2X4 receptor) | pain threshold value (paw withdrawal threshold) of the diseased limb [1]
O=C(Cc1ccccc1Cl)Nc1ccc(N2C(=O)CC(=O)Nc3c2ccc2ccccc32)cc1 [Example 13, 5-[4-[(2-Chlorophenylacetyl)amino]phenyl]-1H-naphtho[1,2-b][1,4]diazepine-2,4(3H,5H)-dione] | 540 nM | 
O=C1CC(=O)N(c2ccc(NC(=O)Nc3ccccc3)cc2)c2ccc3ccccc3c2N1 [Example 20, 1-[4-(2,4-Dioxo-1,2,3,4-tetrahydronaphtho[1,2-b][1,4]diazepin-5-yl)phenyl]-3-phenylurea] | 1200 nM | 
O=C1CC(=O)N(c2ccc(NC(=O)c3ccccc3I)cc2)c2ccc3ccccc3c2N1 [Example 48, 5-[4-(2-Iodobenozoylamino)phenyl]-1H-naphtho[1,2-b][1,4]diazepine-2,4(3H,5H)-dione] |  | raised the pain threshold value of the diseased limb
O=C1CC(=O)N(c2ccc(NC(=O)c3c(O)cccc3Cl)cc2)c2ccc3ccccc3c2N1 [Example 118, 5-[4-(6-Chloro-2-hydroxybenzoylamino)phenyl]-1H-naphtho[1,2-b][1,4]diazepine-2,4(3H,5H)-dione] | 1100 nM | raised the pain threshold value of the diseased limb
CN(c1ccc(N2C(=O)CC(=O)Nc3c2ccc2c3CCCC2)cc1)S(=O)(=O)Cc1ccccc1Cl [Example 196, 1-(2-Chlorophenyl)-N-[4-(2,4-dioxo-1,2,3,4,8,9,10,11-octahydronaphtho[1,2-b][1,4]diazepin-5-yl)phenyl]-N-methylmethanesulfonamide] | 970 nM | 
O=C1CN=C(c2ccc(NS(=O)(=O)Cc3ccccc3Cl)cc2)c2ccc3ccccc3c2N1 [Example 197, 1-(2-Chlorophenyl)-N-[4-(2-oxo-2,3-dihydro-1H-naphtho[1,2-e][1,4]diazepin-5-yl)phenyl]methanesulfonamide] | 440 nM | 
Cc1ncccc1C(=O)Nc1ccc(N2C(=O)CC(=O)Nc3c2ccc2ccccc32)cc1 [Example 208, 5-[4-[(2-Methylpyridin-3-yl)carbonylamino]phenyl]-1H-naphtho[1,2-b][1,4]diazepine-2,4(3H,5H)-dione hydrochloride] | 1300 nM | 
O=C1CC(=O)N(c2ccc(NC(=O)c3cccnc3Cl)cc2)c2ccc3ccccc3c2N1 [Example 209, 5-[4-[(2-Chloropyridin-3-yl)carbonylamino]phenyl]-1H-naphtho[1,2-b][1,4]diazepine-2,4(3H,5H)-dione] | 940 nM | 
O=C(COc1ccccn1)Nc1ccc(N2C(=O)CC(=O)Nc3c2ccc2ccccc32)cc1 [Example 210, 5-[4-[2-[(Pyridin-2-yl)oxy]acetylamino]phenyl]-1H-naphtho[1,2-b][1,4]diazepine-2,4(3H,5H)-dione] | 1400 nM | 
